The target in one experiment is T1, Human MC1R (Homo sapiens, UniProt Q01726).
T1 construct: endogenous in cells; host or cells: human melanoma cell line HBL
In words: Human MC1R agonistic activity measurement (cAMP assay) using human melanoma cell line HBL. Type of experiment: cell-based. As to conditions: HBL cells; for Emax: 0.5 h, Intrinsic Activity, vehicle cAMP = 0%, αMSH at 10^-6 M = 100%, read-out: Human MC1R IA %; for pEC50: intracellular cAMP, 37° C. for 30 minutes. As for the experimental part:
(1) Method for Culturing Cells
Human MC1R agonistic activity measurement was carried out by using human melanoma cell line HBL. Culture of HBL: F-10 Nutrient Mixture comprising 10% FCS and Penicillin-streptomycin was used in the culture.
(2) cAMP Assay and Data Calculation
Each compound solution having each concentration was mixed with a cAMP assay buffer (HBSS (Hank's Balanced Salt Solution) comprising 10 mM HEPES and 0.1% BSA), and dispensed into a 96 well plate. HBL was suspended into a cAMP assay buffer comprising 0.5 mM IBMX so that the concentration became 5×10^4/mL, and the resulting suspension was dispensed into the above 96 well plate, then mixed, and left to stand at 37° C. for 30 minutes, and then the intracellular cAMP concentration was measured by a fluorescence method using Envision (ex. 320 nm, em. 590 nm and 665 nm). Each ratio value (665 nm measurement value/590 nm measurement value×10,000) was calculated from the resulting data, and the quantitative value of each cAMP concentration was calculated by using Prism 5.02, and induction % value (% of each sample when the average concentration value of cAMP of vehicle was set to be 0% and the average concentration value of cAMP of αMSH at 10^−6 M was set to be 100%) was calculated, and EC50 value and Intrinsic Activity (IA) % value were calculated.

The target in another experiment is human MC4R (Homo sapiens, UniProt P32245). Description: human MC4R agonistic activity. Format: cell-based.
Sequence of human MC4R (P32245 whole entry): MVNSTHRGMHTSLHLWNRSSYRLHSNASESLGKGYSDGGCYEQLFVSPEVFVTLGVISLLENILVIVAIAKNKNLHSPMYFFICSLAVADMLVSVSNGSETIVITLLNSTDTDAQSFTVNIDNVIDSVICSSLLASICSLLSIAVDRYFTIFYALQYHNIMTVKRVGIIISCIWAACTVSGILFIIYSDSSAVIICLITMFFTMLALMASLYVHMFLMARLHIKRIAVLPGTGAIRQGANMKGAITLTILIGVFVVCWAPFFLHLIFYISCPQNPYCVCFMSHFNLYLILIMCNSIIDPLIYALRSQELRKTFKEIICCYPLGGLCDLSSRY

pEC50: −log10 of the molar value. Where a name gives a salt, the structure may show the parent alone.

T1 sequence (Q01726 whole entry): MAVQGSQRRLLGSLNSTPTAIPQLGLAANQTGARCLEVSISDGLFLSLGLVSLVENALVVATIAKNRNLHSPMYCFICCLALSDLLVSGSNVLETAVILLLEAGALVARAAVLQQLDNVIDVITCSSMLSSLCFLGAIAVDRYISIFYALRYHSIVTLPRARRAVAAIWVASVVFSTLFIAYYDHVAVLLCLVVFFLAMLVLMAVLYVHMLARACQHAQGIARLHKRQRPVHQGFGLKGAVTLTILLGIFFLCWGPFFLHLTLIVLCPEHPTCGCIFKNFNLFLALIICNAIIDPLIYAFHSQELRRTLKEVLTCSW

In general, pEC50 refers to the EC50 on a negative log10 scale, so that one unit is a factor of ten. The low end stands for a high EC50, the high end for a low EC50. Turning to `Cc1ccc(Cn2ccnc2NC(=O)[C@@H]2CN(C3(C)CCN(CCO)CC3)C[C@H]2c2ccc(F)cc2F)c(N2CCOCC2)c1` [Example 64, (3S,4R)-4-(2,4-difluorophenyl)-1-[1-(2-hydroxyethyl)-4-methylpiperidin-4-yl]-N-{1-[4-methyl-2-(morpholin-4-yl)benzyl]-1H-imidazol-2-yl}pyrrolidine-3-carboxamide], at Human MC1R, the Emax stood at 79% and the pEC50 was 8.64.
For `COC(C)(C)CCCN1C[C@@H](c2ccc(F)cc2F)[C@](F)(C(=O)Nc2nccn2Cc2ccc(C(F)(F)F)cc2N2CCC(C(=O)O)CC2)C1` [Example 19, 1-[2-{[2-({[(3R,4R)-4-(2,4-difluorophenyl)-3-fluoro-1-(4-methoxy-4-methylpentyl)pyrrolidin-3-yl]carbonyl}amino)-1H-imidazol-1-yl]methyl}-5-(trifluoromethyl)phenyl]piperidine-4-carboxylic acid], at Human MC1R, the Emax was determined as 83% and the pEC50 is 8.46.
As for `COc1ccc([C@@H]2CN(C(C)(C)C)C[C@@]2(F)C(=O)Nc2nccn2Cc2ccc(C(F)(F)F)cc2N2CCC(C(=O)O)CC2)cc1` [Example 52, 1-[2-{[2-({[(3R,4R)-1-tert-butyl-3-fluoro-4-(4-methoxyphenyl)pyrrolidin-3-yl]carbonyl}amino)-1H-imidazol-1-yl]methyl}-5-(trifluoromethyl)phenyl]piperidine-4-carboxylic acid], on Human MC1R, the Emax came to 118% and the pEC50 is 8.80.
As for `CN(C)C(=O)CCCN1CC(c2ccc(F)cc2F)C(C(=O)Nc2nccn2Cc2ccc(C(F)(F)F)cc2N2CCC(C(=O)O)CC2)(C(F)(F)F)C1` (stereo not drawn) [Example 28], at Human MC1R, the Emax is 91% and the pEC50 was 7.60.
For `O=C(O)C1CCN(c2cc(C(F)(F)F)ccc2Cn2ccnc2NC(=O)[C@]2(F)CN(C3CCCC3)C[C@H]2c2ccc(F)cc2F)CC1` [Example 16, 1-[2-{[2-({[(3R,4R)-1-cyclopentyl-4-(2,4-difluorophenyl)-3-fluoropyrrolidin-3-yl]carbonyl}amino)-1H-imidazol-1-yl]methyl}-5-(trifluoromethyl)phenyl]piperidin-4-carboxylic acid], in that order: 88% and 8.17.
In the same order, the values of `COC(C)(C)CCCN1C[C@@H](c2ccc(F)cc2F)[C@](F)(C(=O)Nc2nccn2Cc2ccc(C)cc2N2CCC(C(=O)O)CC2)C1` [Example 13, 1-(2-{[2-({[(3R,4R)-4-(2,4-difluorophenyl)-3-fluoro-1-(4-methoxy-4-methylpentyl)pyrrolidin-3-yl]carbonyl}amino)-1H-imidazol-1-yl]methyl}-5-methylphenyl)piperidine-4-carboxylic acid] are 89% and 7.66.
For `Cc1ccc(Cn2ccnc2NC(=O)[C@@H]2CN(C(C)(C)C)C[C@H]2c2ccc(F)cc2F)c(N2CCC(C(=O)NS(=O)(=O)N(C)C)CC2)c1` [Example 85, 1-(2-{[2-({[(3S,4R)-1-tert-butyl-4-(2,4-difluorophenyl)pyrrolidin-3-yl]carbonyl}amino)-1H-imidazol-1-yl]methyl}-5-methylphenyl)-N-(dimethylsulfamoyl)piperidine-4-carboxamide trihydrochloride], in that order: 98% and 7.80.
With `CC(C)(C)N1C[C@@H](C(=O)Nc2nccn2CC2(N3CCOCC3)CCCCC2)[C@H](c2ccc(F)cc2F)C1` [Example 70], on Human MC1R, the Emax came out at 58% and the pEC50 is 7.08.
In the same order, the values of `Cc1ccc(Cn2ccnc2NC(=O)[C@@H]2CN(c3ccnc(C)c3)C[C@H]2c2ccc(F)cc2F)c(N2CCOCC2)c1` [Example 72] are 66% and 7.70.
For `CC(C)(C)N1C[C@@H](c2ccc(F)cn2)[C@](F)(C(=O)Nc2nccn2Cc2ccc(C(F)(F)F)nc2N2CCOCC2)C1` [Example 80], in that order: 76% and 7.17.
For `CC(C)c1ccc(Cn2ccnc2NC(=O)[C@]2(F)CN(C(C)(C)C)C[C@H]2c2ccc(F)cc2)c(N2CCC(C(=O)O)CC2)c1` [Example 49, 1-[2-{[2-({[(3R,4R)-1-tert-butyl-3-fluoro-4-(4-fluorophenyl)pyrrolidin-3-yl]carbonyl}amino)-1H-imidazol-1-yl]methyl}-5-(propan-2-yl)phenyl]piperidine-4-carboxylic acid], in that order: 96% and 8.70.
Take `Cc1ccc(Cn2ccnc2NC(=O)[C@@H]2CN(CC[C@H]3Cc4ccccc4CN3)C[C@H]2c2ccc(F)cc2F)c(N2CCC(C(=O)O)CC2)c1` [Example 32, 1-(2-{[2-({[(3S,4R)-4-(2,4-difluorophenyl)-1-{2-[(3R)-1,2,3,4-tetrahydroisoquinolin-3-yl]ethyl}pyrrolidin-3-yl]carbonyl}amino)-1H-imidazol-1-yl]methyl}-5-methylphenyl)piperidine-4-carboxylic acid tetrahydrochloride]: the pEC50 was 8.55 at Human MC1R and 6.25 at human MC4R.
Consider `O=C(O)C1CCN(c2cc(C(F)(F)F)ccc2Cn2ccnc2NC(=O)[C@]2(F)CN(CCCS(=O)(=O)N3CCCC3)C[C@H]2c2ccc(F)cc2F)CC1` [Example 26, 1-[2-({2-[({(3R,4R)-4-(2,4-difluorophenyl)-3-fluoro-1-[3-(pyrrolidin-1-ylsulfonyl)propyl]pyrrolidin-3-yl}carbonyl)amino]-1H-imidazol-1-yl}methyl)-5-(trifluoromethyl)phenyl]piperidine-4-carboxylic acid], for which, on Human MC1R, the Emax was found to be 97% and the pEC50 was 8.12.
For the molecule `COc1ccc([C@@H]2CN(C(C)(C)C)C[C@@]2(F)C(=O)Nc2nccn2Cc2ccc(C(C)C)cc2N2CCC(C(=O)O)CC2)cc1` [Example 54, 1-[2-{[2-({[(3R,4R)-1-tert-butyl-3-fluoro-4-(4-methoxyphenyl)pyrrolidin-3-yl]carbonyl}amino)-1H-imidazol-1-yl]methyl}-5-(propan-2-yl)phenyl]piperidine-4-carboxylic acid], at Human MC1R, the Emax came out at 109% and the negative-log EC50 (pEC50) was 8.55.
For `CC(C)(C)N1C[C@@H](c2ccc(F)cc2)[C@](F)(C(=O)Nc2nccn2Cc2ccc(C(F)(F)F)cc2N2CCC(C(=O)O)CC2)C1` [Example 43, 1-[2-{[2-({[(3R,4R)-1-tert-butyl-3-fluoro-4-(4-fluorophenyl)pyrrolidin-3-yl]carbonyl}amino)-1H-imidazol-1-yl]methyl}-5-(trifluoromethyl)phenyl]piperidine-4-carboxylic acid], in that order: 108% and 8.22.

The record behind these values is patent publication US10487072B2, “Substituted imidazoles as melanocortin receptor agonists” (MITSUBISHI TANABE PHARMA CORPORATION, priority 2015, dated 2019).
